Assay results taken from ChEMBL document CHEMBL1201862, “PubChem BioAssay data set” (2004).
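Assay format: 96-well plates, 48-hour exposure. GI50 is the concentration that inhibits growth by half.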 Active and inactive are the calls of the source. Cut-off read from the data, not from the text of the source: active = GI50 up to about 1.1 µM and inactive = higher.

Experiments:
Assay in all cases: NCI tumour cell line growth inhibition, 48 h
HCC 2998 = system: HCC 2998
NCI-H522 = system: NCI-H522
K562 = system: K562
SK-OV-3 = system: SK-OV-3
DMS-273 = system: DMS-273
SK-MEL-5 = system: SK-MEL-5
OVCAR-5 = system: OVCAR-5
HOP-92 = system: HOP-92
A498 = system: A498
HT-29 = system: HT-29
HCT-15 = system: HCT-15
U-251 = system: U-251
SN12C = system: SN12C
IGROV-1 = system: IGROV-1
SNB-78 = system: SNB-78
SW-620 = system: SW-620
HCT-116 = system: HCT-116
HL-60 = system: HL-60
NCI-H226 = system: NCI-H226
SNB-19 = system: SNB-19
HOP-18 = system: HOP-18
COLO 205 = system: COLO 205
NCI-H460 = system: NCI-H460
A549 = system: A549
UO-31 = system: UO-31
OVCAR-3 = system: OVCAR-3
SF-268 = system: SF-268
SF-295 = system: SF-295
786-0 = system: 786-0
XF498 = system: XF498
CCRF-CEM = system: CCRF-CEM
SNB-75 = system: SNB-75
KM12 = system: KM12
Malme-3M = system: Malme-3M
DMS-114 = system: DMS-114
UACC-62 = system: UACC-62
KM-20L2 = system: KM-20L2
HOP-62 = system: HOP-62
ACHN = system: ACHN
MOLT-4 = system: MOLT-4
SK-MEL-28 = system: SK-MEL-28
TK-10 = system: TK-10
M19-MEL = system: M19-MEL
M14 = system: M14
DLD-1 = system: DLD-1
SF-539 = system: SF-539
RPMI-8226 = system: RPMI-8226
OVCAR-8 = system: OVCAR-8
UACC-257 = system: UACC-257
OVCAR-4 = system: OVCAR-4
EKVX = system: EKVX
LXFL 529 = system: LXFL 529
NCI-H23 = system: NCI-H23
CAKI-1 = system: CAKI-1
SK-MEL-2 = system: SK-MEL-2
NCI/ADR-RES = system: NCI/ADR-RES
RXF 393 = system: RXF 393
LOX IMVI = system: LOX IMVI
MCF7 = system: MCF7

Structure (SMILES): CC12C(=O)N(CCN)C(=O)C1C1c3ccccc3C2c2ccccc21 (centres undefined)
- GI50 (HCC 2998): > 100 µM (inactive)
- GI50 (NCI-H522): > 100 µM (inactive)
- GI50 (K562): > 100 µM (inactive)
- GI50 (SK-OV-3): > 100 µM (inactive)
- GI50 (DMS-273): > 100 µM (inactive)
- GI50 (SK-MEL-5): > 100 µM (inactive)
- GI50 (OVCAR-5): > 100 µM (inactive)
- GI50 (HOP-92): 28.9 µM (inactive)
- GI50 (A498): > 100 µM (inactive)
- GI50 (HT-29): 58.3 µM (inactive)
- GI50 (HCT-15): > 100 µM
- GI50 (U-251): > 100 µM (inactive)
- GI50 (SN12C): > 100 µM (inactive)
- GI50 (IGROV-1): > 100 µM (inactive)
- GI50 (SNB-78): > 100 µM (inactive)
- GI50 (SW-620): > 100 µM (inactive)
- GI50 (HCT-116): > 100 µM (inactive)
- GI50 (HL-60): 77.8 µM (inactive)
- GI50 (NCI-H226): > 100 µM (inactive)
- GI50 (SNB-19): > 100 µM (inactive)
- GI50 (HOP-18): > 100 µM (inactive)
- GI50 (COLO 205): > 100 µM (inactive)
- GI50 (NCI-H460): > 100 µM (inactive)
- GI50 (A549): > 100 µM (inactive)
- GI50 (UO-31): > 100 µM (inactive)
- GI50 (OVCAR-3): > 100 µM (inactive)
- GI50 (SF-268): > 100 µM (inactive)
- GI50 (SF-295): > 100 µM (inactive)
- GI50 (786-0): > 100 µM (inactive)
- GI50 (XF498): > 100 µM (inactive)
- GI50 (CCRF-CEM): > 100 µM (inactive)
- GI50 (SNB-75): 37.3 µM (inactive)
- GI50 (KM12): > 100 µM (inactive)
- GI50 (Malme-3M): > 100 µM (inactive)
- GI50 (DMS-114): > 100 µM (inactive)
- GI50 (UACC-62): > 100 µM (inactive)
- GI50 (KM-20L2): > 100 µM (inactive)
- GI50 (HOP-62): > 100 µM (inactive)
- GI50 (ACHN): > 100 µM (inactive)
- GI50 (MOLT-4): > 100 µM (inactive)
- GI50 (SK-MEL-28): > 100 µM (inactive)
- GI50 (TK-10): > 100 µM (inactive)
- GI50 (M19-MEL): > 100 µM (inactive)
- GI50 (M14): > 100 µM (inactive)
- GI50 (DLD-1): > 100 µM (inactive)
- GI50 (SF-539): > 100 µM (inactive)
- GI50 (RPMI-8226): > 100 µM (inactive)
- GI50 (OVCAR-8): > 100 µM (inactive)
- GI50 (UACC-257): > 100 µM (inactive)
- GI50 (OVCAR-4): > 100 µM (inactive)
- GI50 (EKVX): > 100 µM (inactive)
- GI50 (LXFL 529): > 100 µM (inactive)
- GI50 (NCI-H23): > 100 µM (inactive)
- GI50 (CAKI-1): > 100 µM (inactive)
- GI50 (SK-MEL-2): > 100 µM (inactive)

Structure (SMILES): CC(=O)OCC1OC(NC(=O)N(CCCl)N=O)C(OC(C)=O)C(OC(C)=O)C1OC(C)=O (centres undefined)
- GI50 (HCC 2998): > 100 µM (inactive)
- GI50 (NCI-H522): > 100 µM (inactive)
- GI50 (K562): > 100 µM (inactive)
- GI50 (SK-OV-3): > 100 µM (inactive)
- GI50 (DMS-273): > 100 µM (inactive)
- GI50 (SK-MEL-5): > 31.6 µM (inactive)
- GI50 (OVCAR-5): > 100 µM (inactive)
- GI50 (HOP-92): > 100 µM (inactive)
- GI50 (A498): > 100 µM (inactive)
- GI50 (HT-29): > 100 µM (inactive)
- GI50 (HCT-15): > 100 µM
- GI50 (U-251): 98.4 µM (inactive)
- GI50 (SN12C): > 100 µM (inactive)
- GI50 (NCI/ADR-RES): > 100 µM (inactive)
- GI50 (IGROV-1): > 100 µM (inactive)
- GI50 (SNB-78): > 100 µM (inactive)
- GI50 (SW-620): > 100 µM (inactive)
- GI50 (HCT-116): > 100 µM (inactive)
- GI50 (RXF 393): > 100 µM (inactive)
- GI50 (HL-60): > 100 µM (inactive)
- GI50 (NCI-H226): 3.86 µM (inactive)
- GI50 (SNB-19): > 65.8 µM (inactive)
- GI50 (HOP-18): > 100 µM (inactive)
- GI50 (COLO 205): > 100 µM (inactive)
- GI50 (NCI-H460): > 83.8 µM (inactive)
- GI50 (A549): > 100 µM (inactive)
- GI50 (LOX IMVI): 44.8 µM (inactive)
- GI50 (UO-31): > 100 µM (inactive)
- GI50 (OVCAR-3): > 100 µM (inactive)
- GI50 (SF-268): > 80.9 µM (inactive)
- GI50 (SF-295): 97.1 µM (inactive)
- GI50 (XF498): 75.9 µM (inactive)
- GI50 (CCRF-CEM): > 100 µM (inactive)
- GI50 (SNB-75): 36.1 µM (inactive)
- GI50 (KM12): > 100 µM (inactive)
- GI50 (Malme-3M): > 100 µM (inactive)
- GI50 (DMS-114): > 100 µM (inactive)
- GI50 (UACC-62): 43.9 µM (inactive)
- GI50 (KM-20L2): > 100 µM (inactive)
- GI50 (HOP-62): > 100 µM (inactive)
- GI50 (MOLT-4): > 31.6 µM (inactive)
- GI50 (SK-MEL-28): > 100 µM (inactive)
- GI50 (MCF7): > 100 µM (inactive)
- GI50 (M19-MEL): > 100 µM (inactive)
- GI50 (DLD-1): > 100 µM (inactive)
- GI50 (SF-539): > 89.1 µM (inactive)
- GI50 (RPMI-8226): > 100 µM (inactive)
- GI50 (OVCAR-8): > 100 µM (inactive)
- GI50 (UACC-257): > 100 µM (inactive)
- GI50 (OVCAR-4): > 100 µM (inactive)
- GI50 (EKVX): 54.8 µM (inactive)
- GI50 (NCI-H23): > 100 µM (inactive)
- GI50 (CAKI-1): > 86.7 µM (inactive)
- GI50 (SK-MEL-2): > 100 µM (inactive)
